Experimental data: ChEMBL document CHEMBL5058564, “EUbOPEN Chemogenomics Library 2 (Incucyte)” (2022)

Legend:
Type in all cases: toxicity, cell-based
[1] = tested on: HEK-293T; experiment: Incucyte cell viability with HEK293T; conditions: human, 10 µM, compound concentration 10 uM
[2] = tested on: Fibroblast; experiment: Incucyte cell viability with human fibroblast; conditions: 10 µM, compound concentration 10 uM
[3] = tested on: U2OS; experiment: Incucyte cell viability with U2OS; conditions: human, 10 µM, compound concentration 10 uM
[4] = 6 h, replicate number 1, timepoint 6 hours
[5] = 6 h, replicate number 2, timepoint 6 hours
[6] = 12 h, replicate number 1, timepoint 12 hours
[7] = 12 h, replicate number 2, timepoint 12 hours
[8] = 18 h, replicate number 1, timepoint 18 hours
[9] = 18 h, replicate number 2, timepoint 18 hours
[10] = 24 h, replicate number 1, timepoint 24 hours
[11] = 24 h, replicate number 2, timepoint 24 hours
[12] = 0 h, replicate number 1, timepoint 0 hours
[13] = 0 h, replicate number 2, timepoint 0 hours
Note: unitless GR value; below 1 slowed growth and below 0 cell loss.

For `CC(C)c1noc(N2CCC(COc3ccc(-c4ccc(S(C)(=O)=O)cc4)nc3)CC2)n1` [GSK-1292263], the “Growth Rate” value [1, 4] was -0.15, the “Growth Rate” value [1, 5] was -0.07 and the “Growth Rate” value [1, 6] was 0.09. The “Growth Rate” value [1, 7] was 0.17, the “Growth Rate” value [1, 8] was 0.14 and the “Growth Rate” value [1, 9] was 0.41. For the same compound, the “Growth Rate” value [1, 10] was 0.22, the “Growth Rate” value [1, 11] was 0.55 and the “Growth Rate” value [2, 12] was -0.57. The “Growth Rate” value [2, 13] was 0.61, the “Growth Rate” value [2, 5] was -0.06 and the “Growth Rate” value [2, 7] was 0.41. The “Growth Rate” value [2, 8] was 0.53, the “Growth Rate” value [2, 9] was 0.76 and the “Growth Rate” value [3, 12] was -0.92. The “Growth Rate” value [3, 13] was -0.96, the “Growth Rate” value [3, 7] was 0.96 and the “Growth Rate” value [3, 8] was 0.91. The “Growth Rate” value [3, 9] was 0.85.
With `Cl.N=C(N)NC(=O)Cc1c(Cl)cccc1Cl` [GUANFACINE HYDROCHLORIDE] the “Growth Rate” value [1, 12] was 0.44, the “Growth Rate” value [1, 4] was 0.87 and the “Growth Rate” value [1, 6] was 0.84. For the same compound, the “Growth Rate” value [1, 8] was 0.76, the “Growth Rate” value [1, 10] was 0.76 and the “Growth Rate” value [2, 12] was 0.58. For the same compound, the “Growth Rate” value [2, 13] was 0.01, the “Growth Rate” value [2, 8] was 0.88 and the “Growth Rate” value [2, 9] was 0.92. The “Growth Rate” value [2, 10] was 0.38, the “Growth Rate” value [2, 11] was 0.81 and the “Growth Rate” value [3, 4] was 0.84. For the same compound, the “Growth Rate” value [3, 6] was 0.99.
`O=C(O)CCc1ccc(NCc2cccc(Oc3ccccc3)c2)cc1` [GW9508] was tested, and the “Growth Rate” value [1, 13] was 0.79, the “Growth Rate” value [1, 10] was 0.98 and the “Growth Rate” value [2, 12] was -0.2. For the same compound, the “Growth Rate” value [2, 13] was 0.43, the “Growth Rate” value [2, 6] was 1 and the “Growth Rate” value [3, 13] was 0.8. For the same compound, the “Growth Rate” value [3, 5] was 0.91, the “Growth Rate” value [3, 6] was 1 and the “Growth Rate” value [3, 9] was 0.97.
In the case of `O=C(NCCN1CCC(n2c(=O)[nH]c3cc(Cl)ccc32)CC1)c1ccc(F)cc1` [HALOPEMIDE], the “Growth Rate” value [1, 4] is reported as -0.01, the “Growth Rate” value [1, 5] is reported as 0.96 and the “Growth Rate” value [1, 6] is reported as 0.56. The “Growth Rate” value [1, 7] was 0.68, the “Growth Rate” value [1, 8] was 0.67 and the “Growth Rate” value [1, 10] was 0.5. For the same compound, the “Growth Rate” value [2, 4] was -0.01, the “Growth Rate” value [2, 5] was 0.12 and the “Growth Rate” value [2, 6] was -0.23. For the same compound, the “Growth Rate” value [2, 7] was 0.66, the “Growth Rate” value [2, 8] was -0.17 and the “Growth Rate” value [2, 10] was -0.39. For the same compound, the “Growth Rate” value [3, 12] was 0.7, the “Growth Rate” value [3, 13] was 0.14 and the “Growth Rate” value [3, 9] was 1.
`Cl.Cl.NCCc1c[nH]cn1` [HISTAMINE DIHYDROCHLORIDE] was tested, and the “Growth Rate” value [1, 12] was 0.54, the “Growth Rate” value [1, 13] was 0.62 and the “Growth Rate” value [1, 4] was 0.99. The “Growth Rate” value [1, 6] was 0.79, the “Growth Rate” value [1, 8] was 0.83 and the “Growth Rate” value [1, 9] was 0.79. The “Growth Rate” value [1, 10] was 0.82, the “Growth Rate” value [1, 11] was 0.75 and the “Growth Rate” value [2, 12] was 0.45. The “Growth Rate” value [2, 6] was 0.77, the “Growth Rate” value [2, 7] was 1 and the “Growth Rate” value [2, 8] was 0.99. The “Growth Rate” value [2, 9] was 0.87, the “Growth Rate” value [2, 10] was 0.52 and the “Growth Rate” value [2, 11] was 0.76. For the same compound, the “Growth Rate” value [3, 12] was 0.04, the “Growth Rate” value [3, 13] was 0.37 and the “Growth Rate” value [3, 4] was 0.35. The “Growth Rate” value [3, 6] was 0.76, the “Growth Rate” value [3, 7] was 0.97 and the “Growth Rate” value [3, 8] was 0.74.
In the case of `Cl.Cl.OCCOCCN1CCN(C(c2ccccc2)c2ccc(Cl)cc2)CC1` (configuration not stated) [HYDROXYZINE HYDROCHLORIDE], the “Growth Rate” value [1, 4] is reported as 0.77, the “Growth Rate” value [1, 5] is reported as 0.15 and the “Growth Rate” value [1, 6] is reported as 0.52. For the same compound, the “Growth Rate” value [1, 7] was 0.45, the “Growth Rate” value [1, 8] was 0.19 and the “Growth Rate” value [1, 9] was 0.39. The “Growth Rate” value [1, 10] was 0.04, the “Growth Rate” value [1, 11] was 0.32 and the “Growth Rate” value [2, 13] was 0.31. The “Growth Rate” value [2, 4] was 0.49, the “Growth Rate” value [2, 6] was 0.82 and the “Growth Rate” value [2, 8] was 0.88. The “Growth Rate” value [2, 10] was 0.77, the “Growth Rate” value [3, 13] was -1 and the “Growth Rate” value [3, 4] was 0.46.
`CNC(=O)[C@H]1O[C@@H](n2cnc3c(NCc4cccc(I)c4)ncnc32)[C@H](O)[C@@H]1O` [IB-MECA] was tested, and the “Growth Rate” value [1, 12] was 0.11, the “Growth Rate” value [1, 13] was 0.3 and the “Growth Rate” value [1, 7] was 1. The “Growth Rate” value [1, 8] was 0.64, the “Growth Rate” value [1, 9] was 0.98 and the “Growth Rate” value [1, 10] was 0.64. The “Growth Rate” value [1, 11] was 0.83, the “Growth Rate” value [2, 12] was 0.22 and the “Growth Rate” value [2, 4] was 0.12. The “Growth Rate” value [2, 5] was -0.56, the “Growth Rate” value [2, 6] was 0.45 and the “Growth Rate” value [2, 7] was 0.1. For the same compound, the “Growth Rate” value [2, 8] was 0.7, the “Growth Rate” value [2, 9] was 0.24 and the “Growth Rate” value [2, 10] was 0.54. For the same compound, the “Growth Rate” value [2, 11] was 0.42, the “Growth Rate” value [3, 12] was -0.65 and the “Growth Rate” value [3, 13] was -0.98. For the same compound, the “Growth Rate” value [3, 4] was 0.98, the “Growth Rate” value [3, 5] was 0.82 and the “Growth Rate” value [3, 6] was 0.89. The “Growth Rate” value [3, 7] was 0.85, the “Growth Rate” value [3, 8] was 0.79 and the “Growth Rate” value [3, 9] was 0.76. The “Growth Rate” value [3, 11] was 0.81.
